# In patent US10093627B2, “Tetrahydroquinoline derivatives and their use as Epac inhibitors” (Institut National de la Sante et de la Recherche Medicale …, priority 2012, dated 2018):
# Tested on: Epac1-induced Rap1 activation in HEK293 cells
# Experiment: Epac1-induced Rap1 activation, Rap1-GTP pull-down in HEK293 cells
# Format: cell-based
# Details: 10 min
# Protocol: HEK293 cells were transfected with either pcDNA3 control vector or Epac1 (see FIG. 2A).
# HEK293 cells were transfected with Epac1 and 24 h after transfection, cells were preincubated or not with CE3F4 for 30 min and were then treated or not with Sp-007 (10 μM) for 10 min (see FIG. 2B).
# HEK293 cells overexpressing β1AR (Beta-1 adrenergic receptors) and transfected with Epac1 were pretreated or not with CE3F4 and stimulated or not with Iso (10 μM) for 10 min (see FIG. 2C).
# Amounts of Rap1-GTP were determined by pull-down assays (see Material and Methods). The bar graph represents the mean±S.E.M. of 5 (FIG. 2A, 2B) or 3 (FIG. 2C) independent experiments. Results are expressed as the percentage of unstimulated control cells.
# Ras and Rap1 pull-down experiments were performed using a GST fusion protein containing respectively the Ras binding domain of Raf1-RBD and the Rap1 binding domain of Ral-GDS as previously described (Métrich et al., 2008). Cells were starved for 1 h before stimulation in MEM free with penicillin-streptomycin (1%). After stimulation, cells were lysed in RIPA buffer (50 mM Tris-HCl, pH 7.5; 500 mM NaCl; 20 mM MgCl2; 0.5% deoxycholic acid; 0.1% SDS; 1% Triton X-100; 1 mM PMSF; protease and phosphatase inhibitors) and 500 μg of protein were incubated with either GST-Raf1-RBD (for Ras) or Ral-GDS (for Rap1) coupled to glutathione-Sepharose beads (Amersham Biosciences) for 1h at 4° C. Beads were then washed three times in washing buffer (50 mM Tris-HCl, pH 7.5; 150 mM NaCl, 20 mM MgCl2, 1% Triton X-100; 0.1 mM PMSF; protease and phosphatase inhibitors). Rap1-GTP or Ras samples and corresponding total lysates were separated on SDS-PAGE gels and transferred onto a polyvinylidene difluoride (PVDF) membrane (Amersham Pharmacia Biotech).
smiles,measurement,setting,value
CC1CCc2c(cc(Br)c(F)c2Br)N1C=O (racemic) [CE3F4],Effect on increase in amount of Rap1-GTP following Sp-007 treatment,"CE3F4 20 μM, 30 min preincubation, Sp-007 10 μM, HEK293 transfected with Epac1, FIG. 2B",prevented the increase
same,Effect on Epac1-induced Rap1 activation following β1-AR stimulation by isoprenaline,"Iso 10 μM, HEK293 overexpressing β1AR, transfected with Epac1, FIG. 2C",decreased
